Measured values from the NIST ThermoML archive (doi:10.1016/j.jct.2014.01.020).
Numbers after ± are expanded uncertainties.

Tests used:
[1] = Liquid; for mass density: Vibrating tube method; for viscosity: 101 kPa, Concentric cylinders viscometry
[2] = molar heat capacity at constant pressure; settings: Liquid, Flow calorimetry

## C1CCCCC1 [cyclohexane]
[1]; 293.15 K, 100 kPa
  mass density: 778.4 ± 0.7 kg/m3
[1]; 293.15 K
  viscosity: 0.98 ± 0.021 mPa·s
[1]; 293.15 K, 1000 kPa
  mass density: 779.1 ± 0.7 kg/m3
[1]; 293.15 K, 2000 kPa
  mass density: 779.9 ± 0.7 kg/m3
[1]; 293.15 K, 5000 kPa
  mass density: 782.4 ± 0.7 kg/m3
[1]; 293.15 K, 10000 kPa
  mass density: 786.3 ± 0.7 kg/m3
[1]; 293.15 K, 15000 kPa
  mass density: 789.9 ± 0.7 kg/m3
[1]; 293.15 K, 20000 kPa
  mass density: 793.4 ± 0.7 kg/m3
[1]; 303.15 K, 100 kPa
  mass density: 769 ± 0.7 kg/m3
[1]; 303.15 K
  viscosity: 0.824 ± 0.018 mPa·s
[1]; 303.15 K, 1000 kPa
  mass density: 769.8 ± 0.7 kg/m3
[1]; 303.15 K, 2000 kPa
  mass density: 770.7 ± 0.7 kg/m3
[1]; 303.15 K, 5000 kPa
  mass density: 773.3 ± 0.7 kg/m3
[1]; 303.15 K, 10000 kPa
  mass density: 777.5 ± 0.7 kg/m3
[1]; 303.15 K, 15000 kPa
  mass density: 781.3 ± 0.7 kg/m3
[1]; 303.15 K, 20000 kPa
  mass density: 785.1 ± 0.8 kg/m3
[1]; 303.15 K, 30000 kPa
  mass density: 792.1 ± 0.8 kg/m3
[1]; 303.15 K, 40000 kPa
  mass density: 798.5 ± 0.8 kg/m3
[1]; 313.15 K, 100 kPa
  mass density: 759.7 ± 0.7 kg/m3
[1]; 313.15 K
  viscosity: 0.701 ± 0.015 mPa·s
[1]; 313.15 K, 1000 kPa
  mass density: 760.3 ± 0.7 kg/m3
[1]; 313.15 K, 2000 kPa
  mass density: 761.2 ± 0.7 kg/m3
[1]; 313.15 K, 5000 kPa
  mass density: 764 ± 0.7 kg/m3
[1]; 313.15 K, 10000 kPa
  mass density: 768.4 ± 0.7 kg/m3
[1]; 313.15 K, 15000 kPa
  mass density: 772.6 ± 0.7 kg/m3
[1]; 313.15 K, 20000 kPa
  mass density: 776.6 ± 0.8 kg/m3
[1]; 313.15 K, 30000 kPa
  mass density: 784.1 ± 0.8 kg/m3
[1]; 313.15 K, 40000 kPa
  mass density: 790.9 ± 0.8 kg/m3
[1]; 323.15 K, 100 kPa
  mass density: 750.1 ± 0.7 kg/m3
[1]; 323.15 K
  viscosity: 0.593 ± 0.013 mPa·s
[1]; 323.15 K, 1000 kPa
  mass density: 750.8 ± 0.7 kg/m3
[1]; 323.15 K, 2000 kPa
  mass density: 751.8 ± 0.7 kg/m3
[1]; 323.15 K, 5000 kPa
  mass density: 754.8 ± 0.7 kg/m3
[1]; 323.15 K, 10000 kPa
  mass density: 759.5 ± 0.7 kg/m3
[1]; 323.15 K, 15000 kPa
  mass density: 763.9 ± 0.7 kg/m3
[1]; 323.15 K, 20000 kPa
  mass density: 768.2 ± 0.8 kg/m3
[1]; 323.15 K, 30000 kPa
  mass density: 776.1 ± 0.8 kg/m3
[1]; 323.15 K, 40000 kPa
  mass density: 783.2 ± 0.8 kg/m3
[1]; 333.15 K, 100 kPa
  mass density: 740.3 ± 0.7 kg/m3
[1]; 333.15 K
  viscosity: 0.522 ± 0.012 mPa·s
[1]; 333.15 K, 1000 kPa
  mass density: 741.1 ± 0.7 kg/m3
[1]; 333.15 K, 2000 kPa
  mass density: 742.2 ± 0.7 kg/m3
[1]; 333.15 K, 5000 kPa
  mass density: 745.5 ± 0.7 kg/m3
[1]; 333.15 K, 10000 kPa
  mass density: 750.5 ± 0.7 kg/m3
[1]; 333.15 K, 15000 kPa
  mass density: 755.3 ± 0.7 kg/m3
[1]; 333.15 K, 20000 kPa
  mass density: 759.7 ± 0.8 kg/m3
[1]; 333.15 K, 30000 kPa
  mass density: 768.1 ± 0.8 kg/m3
[1]; 333.15 K, 40000 kPa
  mass density: 775.6 ± 0.8 kg/m3
[2]; 293.15 K, 100 kPa
  molar heat capacity at constant pressure: 154.7 ± 1.6 J/K/mol
[2]; 293.15 K, 5000 kPa
  molar heat capacity at constant pressure: 153.8 ± 1.6 J/K/mol
[2]; 293.15 K, 10000 kPa
  molar heat capacity at constant pressure: 152.5 ± 1.5 J/K/mol
[2]; 293.15 K, 15000 kPa
  molar heat capacity at constant pressure: 150.5 ± 1.5 J/K/mol
[2]; 293.15 K, 20000 kPa
  molar heat capacity at constant pressure: 149.7 ± 1.5 J/K/mol
[2]; 293.15 K, 25000 kPa
  molar heat capacity at constant pressure: 147.7 ± 1.5 J/K/mol
[2]; 313.15 K, 25000 kPa
  molar heat capacity at constant pressure: 154.6 ± 1.6 J/K/mol
